# Measurements from patent publication EP4775208A1, “USE OF PRMT5 INHIBITOR IN TREATMENT OF TUMORS OR CANCERS” (Apeiron Therapeutics (Hong Kong) Ltd., priority 2023, dated 2025).
# Several values for one entry are separate records, joined by “and”; a condition that tells them apart may be missing. Equal values may be shown once. Read-outs that look alike come from different tables or passages of the source.
# Assay: Mouse brain penetration pharmacokinetics study (plasma and brain)
# Format: in vivo, ICR male mice
# Protocol: IV. Mouse Brain Penetration Pharmacokinetics Study
# The test compounds used in this study were the compounds described in the specific examples of the present disclosure.
# ICR male mice, N=3/group; sourced from Zhejiang Vital River Laboratory Animal Technology Co., Ltd.
# 3. Drug Preparation and Administration
# Single oral (PO) administration to ICR mice: Compounds were dissolved in dimethyl sulfoxide, added to polyethylene glycol 400 and sterile water, and then adjusted to a clear solution with a small amount of 1 mol/L hydrochloric acid. After overnight fasting, the mice were orally gavaged with a dose of 30 mg/kg or 100 mg/kg.
# Blood Collection and Processing: Mice were anesthetized with 5% isoflurane for 3-4 minutes until loss of consciousness. Whole blood (500 µL per time point) was collected via cardiac puncture using dipotassium EDTA (K2EDTA) as the anticoagulant. Plasma was separated by centrifugation ([…] for 5 minutes at 4°C). […] The samples were stored at -80°C.
# Brain Tissue Collection: Following complete exsanguination, the thoracic cavity was opened with scissors. The right atrium was incised, and a needle was inserted into the left ventricle. Transcardial perfusion was performed with physiological saline (approximately 10 mL). Upon completion of perfusion, the skull was opened, and brain tissues were harvested and stored at -80°C.
# Sample Preparation: A 30 µL plasma aliquot (consisting of 10 µL study sample and 20 µL blank plasma) was mixed with 200 µL of ice-cold acetonitrile containing an internal standard (IS). The mixture was vortexed for 30 seconds and then centrifuged at 4,000 g/min for 20 minutes. A 100 µL aliquot of the supernatant was transferred to a 96-well plate and mixed with 200 µL of ultrapure water. After vortexing for 30 seconds, a volume of 5 µL or 10 µL was injected into the LC-MS/MS system for analysis.
# Brain Homogenate Preparation: Brain tissue samples were weighed and homogenized in phosphate-buffered saline (PBS) at a 1:4 ratio (tissue weight [g] to PBS volume [mL]). A 30 µL aliquot of brain homogenate (consisting of 10 µL study sample and 20 µL blank brain homogenate) was mixed with 200 µL of ice-cold acetonitrile containing an internal standard. The mixture was vortexed for 30 seconds and centrifuged at 4,000 g/min for 20 minutes. A 100 µL aliquot of the supernatant was transferred to a 96-well plate and mixed with 200 µL of ultrapure water. After vortexing for 30 seconds, a volume of 2 µL or 10 µL was injected into the LC-MS/MS system for analysis. Table 9: PK data
# [1] = ICR male mice, PO(30mg/kg), sampling time 4 h, individual animals, 30 mg/kg
# [2] = ICR male mice, PO(30mg/kg), sampling time 8 h, individual animals, 30 mg/kg
# [3] = ICR male mice, PO(30mg/kg), sampling time 12 h, individual animals, 30 mg/kg
# [4] = ICR male mice, PO(30mg/kg), sampling time 24 h, individual animals, 30 mg/kg
# [5] = ICR male mice, PO(30mg/kg), sampling time 36 h, individual animals, 30 mg/kg
# [6] = ICR male mice, PO(100mg/kg), sampling time 2 h, individual animals, 100 mg/kg
# [7] = ICR male mice, PO(100mg/kg), sampling time 4 h, individual animals, 100 mg/kg
# [8] = ICR male mice, PO(100mg/kg), sampling time 8 h, individual animals, 100 mg/kg
# [9] = ICR male mice, PO(100mg/kg), sampling time 24 h, individual animals, 100 mg/kg
compound,measurement,setting,value
"CN(C(=O)c1ccc2nc(N)c3cncn3c2c1)[C@@H]1COc2cc(C(F)(F)F)ccc21 [Example 107, (S)-4-amino-N-methy 1-N-(6-(trifluoromethy 1)-2,3-dihydrobenzofuran-3-yl)imidazo[1,5-a]quinoxaline-8-carboxamide]",B/P ratio,[1],0.122 and 0.152
same,Brain concentration,[1],885 ng/g and 1290 ng/g and 1780 ng/g
same,Plasma concentration,[1],10600 ng/mL and 11700 ng/mL
same,B/P ratio,[2],0.227 and 0.305
same,Brain concentration,[2],1700 ng/g and 2080 ng/g
same,Plasma concentration,[2],7500 ng/mL and 6810 ng/mL
same,B/P ratio,[3],0.435 and 0.320
same,Brain concentration,[3],1040 ng/g and 855 ng/g
same,Plasma concentration,[3],2390 ng/mL and 2670 ng/mL
same,B/P ratio,[4],0.186 and 0.225
same,Brain concentration,[4],47.6 ng/g and 65.0 ng/g and 142 ng/g
same,Plasma concentration,[4],201 ng/mL and 349 ng/mL and 631 ng/mL
same,B/P ratio,[5],0.653 and 0.705
same,Brain concentration,[5],25.0 ng/g and 19.1 ng/g
same,Plasma concentration,[5],38.3 ng/mL and 27.1 ng/mL
same,B/P ratio,[6],0.114 and 0.195
same,Brain concentration,[6],6650 ng/g and 4740 ng/g and 10800 ng/g
same,Plasma concentration,[6],41500 ng/mL and 55400 ng/mL
same,B/P ratio,[7],0.143 and 0.168
same,Brain concentration,[7],4560 ng/g and 6100 ng/g
same,Plasma concentration,[7],32000 ng/mL and 36400 ng/mL
same,B/P ratio,[8],0.151 and 0.142
same,Brain concentration,[8],1455 ng/g and 2480 ng/g
same,Plasma concentration,[8],9620 ng/mL and 17500 ng/mL
same,B/P ratio,[9],0.278 and 0.222
same,Brain concentration,[9],356 ng/g and 434 ng/g
same,Plasma concentration,[9],1280 ng/mL and 1950 ng/mL
same,Kp at 4 h,"male, ICR, mouse, brain and plasma, po, 30 mg/kg, ICR male mice, PO(30mg/kg), sampling time 4 h, individual animals, read-out: B/P ratio",0.118
same,Kp at 8 h,"male, ICR, mouse, brain and plasma, po, 30 mg/kg, ICR male mice, PO(30mg/kg), sampling time 8 h, individual animals, read-out: B/P ratio",0.286
same,Kp at 12 h,"male, ICR, mouse, brain and plasma, po, 30 mg/kg, ICR male mice, PO(30mg/kg), sampling time 12 h, individual animals, read-out: B/P ratio",0.365
same,Kp at 24 h,"male, ICR, mouse, brain and plasma, po, 30 mg/kg, ICR male mice, PO(30mg/kg), sampling time 24 h, individual animals, read-out: B/P ratio",0.237
same,Kp at 36 h,"male, ICR, mouse, brain and plasma, po, 30 mg/kg, ICR male mice, PO(30mg/kg), sampling time 36 h, individual animals, read-out: B/P ratio",0.605
same,Kp at 2 h,"male, ICR, mouse, brain and plasma, po, 100 mg/kg, ICR male mice, PO(100mg/kg), sampling time 2 h, individual animals, read-out: B/P ratio",0.171
same,Kp at 4 h,"male, ICR, mouse, brain and plasma, po, 100 mg/kg, ICR male mice, PO(100mg/kg), sampling time 4 h, individual animals, read-out: B/P ratio",0.168
same,Kp at 8 h,"male, ICR, mouse, brain and plasma, po, 100 mg/kg, ICR male mice, PO(100mg/kg), sampling time 8 h, individual animals, read-out: B/P ratio",0.2
same,Kp at 24 h,"male, ICR, mouse, brain and plasma, po, 100 mg/kg, ICR male mice, PO(100mg/kg), sampling time 24 h, individual animals, read-out: B/P ratio",0.321
same,concentration at 8 h,"male, ICR, mouse, brain, po, 30 mg/kg, ICR male mice, PO(30mg/kg), sampling time 8 h, individual animals, read-out: Brain concentration",1820 ng/g
same,concentration at 12 h,"male, ICR, mouse, brain, po, 30 mg/kg, ICR male mice, PO(30mg/kg), sampling time 12 h, individual animals, read-out: Brain concentration",1000 ng/g
same,concentration at 36 h,"male, ICR, mouse, brain, po, 30 mg/kg, ICR male mice, PO(30mg/kg), sampling time 36 h, individual animals, read-out: Brain concentration",30 ng/g
same,concentration at 4 h,"male, ICR, mouse, brain, po, 100 mg/kg, ICR male mice, PO(100mg/kg), sampling time 4 h, individual animals, read-out: Brain concentration",5550 ng/g
same,concentration at 8 h,"male, ICR, mouse, brain, po, 100 mg/kg, ICR male mice, PO(100mg/kg), sampling time 8 h, individual animals, read-out: Brain concentration",2460 ng/g
same,concentration at 24 h,"male, ICR, mouse, brain, po, 100 mg/kg, ICR male mice, PO(100mg/kg), sampling time 24 h, individual animals, read-out: Brain concentration",427 ng/g
same,concentration at 4 h,"male, ICR, mouse, plasma, po, 30 mg/kg, ICR male mice, PO(30mg/kg), sampling time 4 h, individual animals, read-out: Plasma concentration",7520 ng/mL
same,concentration at 8 h,"male, ICR, mouse, plasma, po, 30 mg/kg, ICR male mice, PO(30mg/kg), sampling time 8 h, individual animals, read-out: Plasma concentration",6370 ng/mL
same,concentration at 12 h,"male, ICR, mouse, plasma, po, 30 mg/kg, ICR male mice, PO(30mg/kg), sampling time 12 h, individual animals, read-out: Plasma concentration",2750 ng/mL
same,concentration at 36 h,"male, ICR, mouse, plasma, po, 30 mg/kg, ICR male mice, PO(30mg/kg), sampling time 36 h, individual animals, read-out: Plasma concentration",49.6 ng/mL
same,concentration at 2 h,"male, ICR, mouse, plasma, po, 100 mg/kg, ICR male mice, PO(100mg/kg), sampling time 2 h, individual animals",38800 ng/mL
same,concentration at 4 h,"male, ICR, mouse, plasma, po, 100 mg/kg, ICR male mice, PO(100mg/kg), sampling time 4 h, individual animals, read-out: Plasma concentration",33100 ng/mL
same,concentration at 8 h,"male, ICR, mouse, plasma, po, 100 mg/kg, ICR male mice, PO(100mg/kg), sampling time 8 h, individual animals, read-out: Plasma concentration",12300 ng/mL
same,concentration at 24 h,"male, ICR, mouse, plasma, po, 100 mg/kg, ICR male mice, PO(100mg/kg), sampling time 24 h, individual animals, read-out: Plasma concentration",1330 ng/mL
same,brain penetration,"rodents (ICR mice), oral 30 mg/kg or 100 mg/kg, result in words",favorable brain penetration
